pIC50: −log10 of the molar value. Counter-ions that a name gives are not always drawn.

In one assay the test system is IL-1β release upon NLRP3 activation in peripheral blood mononuclear cells (PBMC). Nature of the assay: PBMC IC50 Determination Assay. It is filed as cell-based. The settings on record: Homo sapiens, PBMC, read-out: PBMC IC50. The protocol:
PBMC IC50 Determination Assay
The compounds of the present disclosure were tested for their inhibitory activity against IL-1β release upon NLRP3 activation in peripheral blood mononuclear cells (PBMC).
Isolated cells were seeded into the wells of a 96-well plate and incubated for 3 h with lipopolysaccharide (LPS). Following medium exchange, the compounds of the present disclosure were added (a single compound per well) and the cells were incubated for 30 min. Next, the cells were stimulated either with ATP (5 mM) or nigericin (10 μM) for 1 h and the cell culture media from the wells were collected for further analysis.
The release of IL-1β into the media was determined by a quantitative detection of IL-1β in the media using an IL-1β enzyme-linked immunosorbent assay (ELISA) Ready-SET-Go!, eBioscience cat. […] Subsequently, plates were blocked with blocking buffer for 1 h at room temperature (rt) and after washing with a buffer (PBS with 0.05% Tween-20) incubated with protein standard and culture media. […] Plates were washed and incubated with HRP-streptavidin for 30 min at rt and washed again. The signal was developed after addition of 3,3,5,5-tetramethylbenzidine-peroxidase (TMB) until colour appeared and the reaction was stopped by 2 M H2SO4. A microplate spectrophotometer (BioTek) was used to detect signals with 450 nm. The detection range of IL-1β ELISA was 2-150 ng/ml.
Turning to `CN(C)Cc1cnn(C[C@@H](OC(=O)Nc2c3c(cc4c2CCC4)CCC3)C(=O)O)c1` [Compound 98, (2R)-3-{4-[(dimethylamino)methyl]-1H-pyrazol-1-yl}-2-{[(1,2,3,5,6,7-hexahydro-s-indacen-4-yl)carbamoyl]oxy}propanoic acid hydrochloride], the pIC50 is 5.00 to 6.00.

The same assay, now with this note: Homo sapiens; LPS-primed PBMC, 30 min compound, stimulated with ATP (5 mM) or nigericin (10 μM) for 1 h; IL-1β ELISA; read-out: PBMC IC50.
For `CCOC(=O)[C@@H](Cn1ccnc1)OC(=O)Nc1c2c(cc3c1CCC3)CCC2` [Compound 67, Ethyl (2R)-2-{[(1,2,3,5,6,7-hexahydro-s-indacen-4-yl)carbamoyl]oxy}-3-(1H-imidazol-1-yl)propanoate], the pIC50 was 6.00 to 7.00.
`CCOC(=O)[C@@H](COC)OC(=O)Nc1c2c(cc3c1CCC3)CCC2` [Compound 68, Ethyl (2R)-2-{[(1,2,3,5,6,7-hexahydro-indacen-4-yl)carbamoyl]oxy}-3-methoxypropanoate]: the negative-log IC50 (pIC50) was 5.00 to 6.00.
Consider `COC[C@@H](OC(=O)Nc1c2c(cc3c1CCC3)CCC2)C(=O)O` [Compound 69, (2R)-2-{[(1,2,3,5,6,7-hexahydro-s-indacen-4-yl)carbamoyl]oxy}-3-methoxypropanoic acid], for which the pIC50 is 6.00 to 7.00.
On the same count and under the same terms, the same measure for `CCOC(=O)C(Cn1cccn1)OC(=O)Nc1cccc(C(F)(F)F)c1Cl` (centres unmarked) [Compound 70, Ethyl 2-({[2-chloro-3-(trifluoromethyl)phenyl]carbamoyl}oxy)-3-(1H-pyrazol-1-yl)propanoate]: 5.00 to 6.00; for `CCOC(=O)C(Cn1ccc(C)n1)OC(=O)Nc1c2c(cc3c1CCC3)CCC2` (centres unmarked) [Compound 72, Ethyl 2-{[(1,2,3,5,6,7-hexahydro-s-indacen-4-yl)carbamoyl]oxy}-3-(3-methyl-1H-pyrazol-1-yl)propanoate]: 7.00 to 8.00; for `CCOC(=O)C(Cn1cccn1)OC(=O)Nc1c(F)cc(F)cc1F` (centres unmarked) [Compound 73, Ethyl 3-(1H-pyrazol-1-yl)-2-{[(2,4,6-trifluorophenyl)carbamoyl]oxy}propanoate]: 6.00 to 7.00.
Same read-out and setting: with `CCOC(=O)C(Cn1cccn1)OC(=O)Nc1c(C)cccc1C(C)C` (centres unmarked) [Compound 74, Ethyl 2-({[2-methyl-6-(propan-2-yl)phenyl]carbamoyl}oxy)-3-(1H-pyrazol-1-yl)propanoate] the figure was 6.00 to 7.00; with `CCOC(=O)C(Cn1cccn1)OC(=O)Nc1c(F)ccc(Cl)c1F` (centres unmarked) [Compound 75, Ethyl 2-{[(3-chloro-2,6-difluorophenyl)carbamoyl]oxy}-3-(1H-pyrazol-1-yl)propanoate], 6.00 to 7.00; with `N#Cc1cnn(C[C@@H](OC(=O)Nc2c3c(cc4c2CCC4)CCC3)C(=O)OCc2ccccc2)c1` [Compound 77, Benzyl (2R)-3-(4-cyano-1H-pyrazol-1-yl)-2-{[(1,2,3,5,6,7-hexahydro-s-indacen-4-yl)carbamoyl]oxy}propanoate], 7.00 to 8.00.
Same read-out and setting: the same measure for `O=C(Nc1c2c(cc3c1CCC3)CCC2)O[C@H](Cn1ccnc1)C(=O)O` [Compound 79, (2R)-2-{[(1,2,3,5,6,7-hexahydro-s-indacen-4-yl)carbamoyl]oxy}-3-(1H-imidazol-1-yl)propanoic acid]: 5.00 to 6.00; for `CCOC(=O)C(Cn1cc(F)cn1)OC(=O)Nc1c2c(cc3c1CCC3)CCC2` (centres unmarked) [Compound 80, Ethyl 3-(4-fluoro-1H-pyrazol-1-yl)-2-{[(1,2,3,5,6,7-hexahydro-s-indacen-4-yl)carbamoyl]oxy}propanoate]: 7.00 to 8.00.
Consider `CCOC(=O)C(Cn1cncc1C)OC(=O)Nc1c2c(cc3c1CCC3)CCC2` (centres unmarked) [Compound 81, Ethyl 2-{[(1,2,3,5,6,7-hexahydro-s-indacen-4-yl)carbamoyl]oxy}-3-(5-methyl-1H-imidazol-1-yl)propanoate], for which the pIC50 is 5.00 to 6.00.
Turning to `N#Cc1cnn(C[C@@H](OC(=O)Nc2c3c(cc4c2CCC4)CCC3)C(=O)O)c1` [Compound 82, (2R)-3-(4-cyano-1H-pyrazol-1-yl)-2-{[(1,2,3,5,6,7-hexahydro-s-indacen-4-yl)carbamoyl]oxy}propanoic acid], the negative logarithm of the IC50 (pIC50) is 7.00 to 8.00.
Turning to `CCOC(=O)C(Cn1ccnc1C)OC(=O)Nc1c2c(cc3c1CCC3)CCC2` (centres unmarked) [Compound 84, Ethyl 2-{[(1,2,3,5,6,7-hexahydro-s-indacen-4-yl)carbamoyl]oxy}-3-(2-methyl-1H-imidazol-1-yl)propanoate], the pIC50 is 5.00 to 6.00.
In the case of `CCOC(=O)C(Cn1cccn1)OC(=O)Nc1c(Cl)cccc1CC` (centres unmarked) [Compound 85, Ethyl 2-{[(2-chloro-6-ethylphenyl)carbamoyl]oxy}-3-(1H-pyrazol-1-yl)propanoate], the pIC50 was 7.00 to 8.00.
Consider `CCOC(=O)C(Cn1cccn1)OC(=O)Nc1c(C)ccc2ccccc12` (centres unmarked) [Compound 86, Ethyl 2-{[(2-methylnaphthalen-1-yl)carbamoyl]oxy}-3-(1H-pyrazol-1-yl)propanoate], for which the pIC50 is 7.00 to 8.00.
For the compound `CCOC(=O)C(Cn1cccn1)OC(=O)NC1CCCCC1C` (centres unmarked) [Compound 87, Ethyl 2-{[(2-methylcyclohexyl)carbamoyl]oxy}-3-(1H-pyrazol-1-yl)propanoate], the pIC50 was 5.00 to 6.00.
With `CCOC(=O)[C@@H](Cn1cc(Cl)cn1)OC(=O)Nc1c2c(cc3c1CCC3)CCC2` [Compound 88, Ethyl (2R)-3-(4-chloro-1H-pyrazol-1-yl)-2-{[(1,2,3,5,6,7-hexahydro-s-indacen-4-yl)carbamoyl]oxy}propanoate], the pIC50 was 7.00 to 8.00.
For the compound `CCOC(=O)[C@@H](Cn1cnc(C#N)c1)OC(=O)Nc1c2c(cc3c1CCC3)CCC2` [Compound 89, Ethyl (2R)-3-(4-cyano-1H-imidazol-1-yl)-2-{[(1,2,3,5,6,7-hexahydro-s-indacen-4-yl)carbamoyl]oxy}propanoate], the pIC50 is 6.00 to 7.00.
On the same count and under the same terms, the same measure for `CCOC(=O)[C@@H](Cn1cncc1C#N)OC(=O)Nc1c2c(cc3c1CCC3)CCC2` [Compound 90, Ethyl (2R)-3-(5-cyano-1H-imidazol-1-yl)-2-{[(1,2,3,5,6,7-hexahydro-s-indacen-4-yl)carbamoyl]oxy}propanoate]: 5.00 to 6.00; for `CCOC(=O)C(Cn1cccn1)OC(=O)Nc1c(C)cc(C(F)(F)F)cc1C` (centres unmarked) [Compound 91, Ethyl 2-({[2,6-dimethyl-4-(trifluoromethyl)phenyl]carbamoyl}oxy)-3-(1H-pyrazol-1-yl)propanoate]: 5.00 to 6.00.
Still for that read-out and setting: the same measure for `CCOC(=O)C(Cn1cc(OC)cn1)OC(=O)Nc1c2c(cc3c1CCC3)CCC2` (centres unmarked) [Compound 92, Ethyl 2-{[(1,2,3,5,6,7-hexahydro-s-indacen-4-yl)carbamoyl]oxy}-3-(4-methoxy-1H-pyrazol-1-yl)propanoate]: 6.00 to 7.00.
On to `CCOC[C@@H](OC(=O)Nc1c2c(cc3c1CCC3)CCC2)C(=O)OCC` [Compound 95, Ethyl (2R)-3-ethoxy-2-{[(1,2,3,5,6,7-hexahydro-s-indacen-4-yl)carbamoyl]oxy}propanoate], for which the pIC50 is 6.00 to 7.00.
The same measure, in the same setting: with `CCOC(=O)[C@@H](Cn1ccc(C#N)n1)OC(=O)Nc1c2c(cc3c1CCC3)CCC2` [Compound 96, Ethyl (2R)-3-(3-cyano-1H-pyrazol-1-yl)-2-{[(1,2,3,5,6,7-hexahydro-s-indacen-4-yl)carbamoyl]oxy}propanoate] the figure was 6.00 to 7.00.
In the case of `CCOC(=O)[C@@H](Cn1cc(C(F)(F)F)cn1)OC(=O)Nc1c2c(cc3c1CCC3)CCC2` [Compound 97, Ethyl (2R)-2-{[(1,2,3,5,6,7-hexahydro-s-indacen-4-yl)carbamoyl]oxy}-3-[4-(trifluoromethyl)-1H-pyrazol-1-yl]propanoate], the pIC50 was 6.00 to 7.00.

One may read the pIC50 as −log10 of the IC50, conventionally taken in molar units.

The record behind these values is patent publication US12247011B2, “Selective inhibitors of NLRP3 inflammasome” (NodThera Limited, priority 2017, dated 2025).
